# Source: patent publication US12527788B2, “Defining RNA-small molecule affinity landscapes enables design of a small molecule inhibitor of an oncogenic non-coding RNA” (University of Florida Research Foundation, Incorporated, priority 2017, dated 2026)
# Legend:
# AT-rich DNA hairpin = experiment: In solution fluorescence-based binding affinity measurement
# Excerpt: It has been difficult to identify compounds that are heterocyclic in nature that selectively recognize RNA over DNA.^5 Thus, to further gain insight into the selectivity of our RNA motif-small molecule interactions, we compared the measured affinities for selected RNA motifs to the affinities of the ligands for an AT-rich DNA hairpin, a common target of small molecules similar to those shown in FIG. 1. […] This alteration reduces DNA affinity because key stacking and hydrogen bonding interactions are not possible. […] Thus, the interactions selected via 2DCS are RNA-selective.
# (§1) Binding Affinity Measurements: An in solution, fluorescence-based assay was used to determine binding affinities by monitoring the change in fluorescence intensity of 1-FL (or 2-FL/3-FL/4-FL) as a function of RNA concentration as described previously.^18 Briefly, the RNA of interest was folded in 1× Folding Buffer (8 mM Na2HPO4, pH 7.0, 185 mM NaCl and 1 mM EDTA) by heating at 60° C. for 5 min followed by slowly cooling to room temperature on the bench top. Then, the FL-conjugated compound was added into the RNA solution to a final concentration of 100 nM. Serial dilutions were then completed using 1× Folding Buffer supplemented with 100 nM FL-conjugated compound. The solutions were incubated at room temperature for 30 min and then transferred to a well of a black 384-well plate. Fluorescence intensity was measured using a Bio-Tek FL×800 plate reader with an excitation wavelength of 485/20 nm and an emission wavelength of 528/20 nm. The change in fluorescence intensity as a function of the concentration of RNA was fit to equation 3:^9 I=I0+0.5 Δε{([FL]0+[RNA]0 +Kd)−(([FL]0+[RNA]0+Kd)^2−4[FL]0[RNA]0)^1/2} (3) where I is the observed fluorescence intensity; I0 is the fluorescence intensity in the absence of RNA; Δε is the difference between the fluorescence intensity in the absence of RNA and in the presence of infinite RNA concentration; [FL]0 is the concentration of compound; [RNA]0 is the concentration of the selected RNA; and Kd is the dissociation constant.
# [1] = test system: other miRNAs studied (of the 33 with potential binding sites); experiment: Chem-CLIP in DU145 cell lysates; design: species or system human; details: 10 μM, DU145 cell lysate
# Experimental: Chem-CLIP in Cell Lysates: DU145 cells were cultured as described above in 100 mm dishes and lysed with 500 μL of Cell Lysis Buffer (10 mM Tris pH 7.4, 0.25% Igepal CA-630 and 150 mM NaCl) for 5 min at room temperature. The cell lysate was then centrifuged and the supernatant collected. Next, 10 μM of 4 was added to the lysate in 1×PBS and the sample was incubated for 2 h at room temperature. The reaction was then directly used for pull-down by incubating with 50 μL of streptavidin resin in 1×PBS for 30 min at room temperature. […] RNA was eluted from the streptavidin beads by incubation with 100 μL of 1× Elution Buffer (10 mM EDTA and 95% formamide) at 65° C. for 20 min. The eluted RNA was cleaned up using a Quick-RNA Miniprep Kit (Zymo) per the manufacturer's protocol. RT-qPCR was completed as described above using 50 ng of total RNA in the RT reaction. Expression levels were normalized to 18S rRNA.
# [2] = biological target: RNAC (U bulge mutated to an AU pair); experiment: Fluorescence-based binding affinity measurement
# Experimental: (§2) FIG. 7: Secondary structures of the nucleic acids to which the binding of small molecule 4 was assessed. […] RNA1 contains the U bulge present in the Dicer processing site common to miR-17, -18a and -20a. RNA2 contains the A bulge that is present in miR-18a. RNA3 contains the G bulge present in miR-17 and miR-20a. Binding affinities (Kd's) are indicated in parentheses and are reported in micromolar.
# (§3) Mutation of the U bulge to an AU pair (RNAC) eliminates binding (Kd>100 μM).
# Binding Affinity Measurements: An in solution, fluorescence-based assay was used to determine binding affinities by monitoring the change in fluorescence intensity of 1-FL (or 2-FL/3-FL/4-FL) as a function of RNA concentration as described previously.^18 Briefly, the RNA of interest was folded in 1× Folding Buffer (8 mM Na2HPO4, pH 7.0, 185 mM NaCl and 1 mM EDTA) by heating at 60° C. for 5 min followed by slowly cooling to room temperature on the bench top. Then, the FL-conjugated compound was added into the RNA solution to a final concentration of 100 nM. Serial dilutions were then completed using 1× Folding Buffer supplemented with 100 nM FL-conjugated compound. The solutions were incubated at room temperature for 30 min and then transferred to a well of a black 384-well plate. […]
# [3] = test system: DU145 prostate cancer cells; experiment: Apoptosis by Annexin V/PI staining; type: cell-based; details: 10 μM and 20 μM
# Experimental: A, Effect of 4 on STK4 protein expression, a direct target of miR-18a. B, Ability of 4 (10 μM and 20 μM) and a miR-18a antagomir (50 nM) to trigger apoptosis. *, p<0.05 and **, p<0.01, as determined by a two-tailed Student t-test.
# Although the most common route to modulate protein expression is to inhibit them directly, here we show it is possible to increase protein expression by targeting non-coding RNAs that repress their production.
# [4] = biological target: RNA3 (G bulge of the miR-17 and miR-20a precursors); experiment: Fluorescence-based binding affinity measurement; design: species or system human
# Experimental: as §2, §3, §1
# [5] = biological target: RNA2 (A bulge of the miR-18a precursor); experiment: Fluorescence-based binding affinity measurement; design: species or system human
# Experimental: as §2, §3, §1
# [6] = biological target: RNA1 (5′G_U/3′CUA U bulge of Dicer sites in miR-17, -18a and -20a); experiment: Fluorescence-based binding affinity measurement; design: species or system human
# Experimental: as §2, §3, §1
compound,measurement,setting,value
CN1CCN(c2ccc(-c3ccc4nc(-c5cc(C(C)(C)C)c(OCCCC(=O)NCCCN=[N+]=[N-])c(C(C)(C)C)c5)[nH]c4c3)cc2)CC1 [Compound 4],Kd,AT-rich DNA hairpin,> 100 µM
same,Enrichment in pulled-down fraction,[1],no enrichment
same,Kd,[2],> 100 µM
same,Apoptosis,[3],triggers apoptosis
same,Kd,[4],40 ± 6 µM
same,Kd,[5],32 ± 5 µM
same,Kd,[6],30 ± 2 µM
